Organism: Rattus norvegicus
Test: DrugMatrix - Regimen: Daily Repeat
Assay type: toxicity, organism-based, Sprague-Dawley
Design: regimen Daily Repeat, gender Male, age 6-8 weeks
Conditions: in vivo, iv, vehicle 100 % SALINE; for ABSOLUTE BASOPHIL / ABSOLUTE EOSINOPHIL / ABSOLUTE LYMPHOCYTE / ABSOLUTE MONOCYTE / ABSOLUTE SEGMENTED NEUTROPHIL / BASOPHIL / EOSINOPHIL / ERYTHROCYTE COUNT / HEMATOCRIT / HEMOGLOBIN / LEUKOCYTE COUNT / LYMPHOCYTE / MEAN CORPUSCULAR HEMOGLOBIN / MEAN CORPUSCULAR HEMOGLOBIN CONCENTRATION / MEAN CORPUSCULAR VOLUME / MONOCYTE / NEUTROPHIL / NUCLEATED RED BLOOD CELLS / PLATELET COUNT: tissue Blood; for ALANINE AMINOTRANSFERASE / ALBUMIN / ALKALINE PHOSPHATASE / ASPARTATE AMINOTRANSFERASE / BLOOD UREA NITROGEN / CARBON DIOXIDE / CHOLESTEROL / CREATINE PHOSPHOKINASE / CREATININE / GLUCOSE / LACTATE DEHYDROGENASE / LIPASE / PHOSPHORUS / POTASSIUM / SODIUM / TOTAL BILIRUBIN / TOTAL PROTEIN / URIC ACID: tissue Plasma
[1] = 18 mg/kg, 120 h, dose level High, time 5 day
[2] = […], 72 h, dose 7.5 mg/Kg, dose level Low, time 3 day
[3] = […], 120 h, dose 7.5 mg/Kg, dose level Low, time 5 day

Structure (SMILES): N=C(N)c1ccc(OCCCCCOc2ccc(C(=N)N)cc2)cc1 [PENTAMIDINE]
- ABSOLUTE BASOPHIL [1]: 0 CELLS/uL
- ABSOLUTE EOSINOPHIL [1]: 0 CELLS/uL
- ABSOLUTE LYMPHOCYTE [1]: 15017 CELLS/uL
- ABSOLUTE MONOCYTE [1]: 444.33 CELLS/uL
- ABSOLUTE SEGMENTED NEUTROPHIL [1]: 972 CELLS/uL
- BASOPHIL [1]: 0%
- EOSINOPHIL [1]: 0%
- ERYTHROCYTE COUNT [1]: 6.15 x10E6/uL
- HEMATOCRIT [1]: 37.9%
- HEMOGLOBIN [1]: 14.2 G/DL
- LEUKOCYTE COUNT [1]: 16.43 x10E3/uL
- LYMPHOCYTE [1]: 91.33%
- MEAN CORPUSCULAR HEMOGLOBIN [1]: 23.07 pg
- MEAN CORPUSCULAR HEMOGLOBIN CONCENTRATION [1]: 37.5 G/DL
- MEAN CORPUSCULAR VOLUME [1]: 61.53 fL
- MONOCYTE [1]: 2.67%
- NEUTROPHIL [1]: 6%
- NUCLEATED RED BLOOD CELLS [1]: 0 /100WBC
- PLATELET COUNT [1]: 1455 x10E3/uL
- ALANINE AMINOTRANSFERASE [1]: 44.33 u/L
- ALBUMIN [1]: 4.3 G/DL
- ALKALINE PHOSPHATASE [1]: 288.33 u/L
- ASPARTATE AMINOTRANSFERASE [1]: 71 u/L
- BLOOD UREA NITROGEN [1]: 13.67 mg/dL
- CARBON DIOXIDE [1]: 26.67 mmol/L
- CHOLESTEROL [1]: 57 mg/dL
- CREATINE PHOSPHOKINASE [1]: 246.67 u/L
- CREATININE [1]: 0.22 mg/dL
- GLUCOSE [1]: 166.33 mg/dL
- LACTATE DEHYDROGENASE [1]: 175 u/L
- LIPASE [1]: 8.67 u/L
- PHOSPHORUS [1]: 11.6 mg/dL
- POTASSIUM [1]: 5.78 MEQ/L
- SODIUM [1]: 146.7 MEQ/L
- TOTAL BILIRUBIN [1]: 0.2 mg/dL
- TOTAL PROTEIN [1]: 6.13 G/DL
- URIC ACID [1]: 1.93 mg/dL
- ABSOLUTE BASOPHIL [2]: 0 CELLS/uL
- ABSOLUTE EOSINOPHIL [2]: 0 CELLS/uL
- ABSOLUTE LYMPHOCYTE [2]: 12540 CELLS/uL
- ABSOLUTE MONOCYTE [2]: 234 CELLS/uL
- ABSOLUTE SEGMENTED NEUTROPHIL [2]: 1759.33 CELLS/uL
- BASOPHIL [2]: 0%
- EOSINOPHIL [2]: 0%
- ERYTHROCYTE COUNT [2]: 5.88 x10E6/uL
- HEMATOCRIT [2]: 37.37%
- HEMOGLOBIN [2]: 14.03 G/DL
- LEUKOCYTE COUNT [2]: 14.53 x10E3/uL
- LYMPHOCYTE [2]: 86.67%
- MEAN CORPUSCULAR HEMOGLOBIN [2]: 23.9 pg
- MEAN CORPUSCULAR HEMOGLOBIN CONCENTRATION [2]: 37.53 G/DL
- MEAN CORPUSCULAR VOLUME [2]: 63.63 fL
- MONOCYTE [2]: 1.67%
- NEUTROPHIL [2]: 11.67%
- NUCLEATED RED BLOOD CELLS [2]: 0 /100WBC
- PLATELET COUNT [2]: 1241.67 x10E3/uL
- ALANINE AMINOTRANSFERASE [2]: 54.33 u/L
- ALBUMIN [2]: 4.63 G/DL
- ALKALINE PHOSPHATASE [2]: 393 u/L
- ASPARTATE AMINOTRANSFERASE [2]: 80.67 u/L
- BLOOD UREA NITROGEN [2]: 15.33 mg/dL
- CARBON DIOXIDE [2]: 24.67 mmol/L
- CHOLESTEROL [2]: 69.67 mg/dL
- CREATINE PHOSPHOKINASE [2]: 265 u/L
- CREATININE [2]: 0.17 mg/dL
- GLUCOSE [2]: 136.67 mg/dL
- LACTATE DEHYDROGENASE [2]: 184 u/L
- LIPASE [2]: 9 u/L
- PHOSPHORUS [2]: 10.97 mg/dL
- POTASSIUM [2]: 6.64 MEQ/L
- SODIUM [2]: 143.8 MEQ/L
- TOTAL BILIRUBIN [2]: 0.23 mg/dL
- TOTAL PROTEIN [2]: 5.83 G/DL
- URIC ACID [2]: 1.97 mg/dL
- ABSOLUTE BASOPHIL [3]: 0 CELLS/uL
- ABSOLUTE EOSINOPHIL [3]: 183 CELLS/uL
- ABSOLUTE LYMPHOCYTE [3]: 14369.67 CELLS/uL
- ABSOLUTE MONOCYTE [3]: 485 CELLS/uL
- ABSOLUTE SEGMENTED NEUTROPHIL [3]: 1795.67 CELLS/uL
- BASOPHIL [3]: 0%
- EOSINOPHIL [3]: 1%
- ERYTHROCYTE COUNT [3]: 5.98 x10E6/uL
- HEMATOCRIT [3]: 38.47%
- HEMOGLOBIN [3]: 14.17 G/DL
- LEUKOCYTE COUNT [3]: 16.83 x10E3/uL
- LYMPHOCYTE [3]: 85%
- MEAN CORPUSCULAR HEMOGLOBIN [3]: 23.7 pg
- MEAN CORPUSCULAR HEMOGLOBIN CONCENTRATION [3]: 36.83 G/DL
- MEAN CORPUSCULAR VOLUME [3]: 64.37 fL
- MONOCYTE [3]: 3%
- NEUTROPHIL [3]: 11%
- NUCLEATED RED BLOOD CELLS [3]: 0 /100WBC
- PLATELET COUNT [3]: 1425 x10E3/uL
- ALANINE AMINOTRANSFERASE [3]: 42.67 u/L
- ALBUMIN [3]: 4.57 G/DL
- ALKALINE PHOSPHATASE [3]: 364.67 u/L
- ASPARTATE AMINOTRANSFERASE [3]: 84.33 u/L
- BLOOD UREA NITROGEN [3]: 18.67 mg/dL
- CARBON DIOXIDE [3]: 27.67 mmol/L
- CHOLESTEROL [3]: 76.67 mg/dL
- CREATINE PHOSPHOKINASE [3]: 325 u/L
- CREATININE [3]: 0.23 mg/dL
- GLUCOSE [3]: 145 mg/dL
- LACTATE DEHYDROGENASE [3]: 461.33 u/L
- LIPASE [3]: 9 u/L
- PHOSPHORUS [3]: 11.17 mg/dL
- POTASSIUM [3]: 6.1 MEQ/L
- SODIUM [3]: 143.03 MEQ/L
- TOTAL BILIRUBIN [3]: 0.23 mg/dL
- TOTAL PROTEIN [3]: 6.3 G/DL
- URIC ACID [3]: 1.33 mg/dL

Reference: ChEMBL document CHEMBL3885881, “DrugMatrix”
